One data set deals with wild type mice. Put plainly: Hot plate thermal nociception test in wild type mice. The data set is classed as in vivo, mouse. As to conditions: cream 1.5 mM, 51° C. hotplate, P28-P42. As for the experimental part:
Thermal nociceptive responses in wild type mice treated with either control or XIB4035 (1.5 mM) containing cream were compared using the hotplate test (51° C.) beginning at four weeks of age (p28) and continued to six weeks of age (P42).
As a first test, a cream containing XIB4035 (1.5 mM) was applied directly to the hind paws of GFAP-DN-erbB4 and wild type mice twice daily for a period of 4 weeks starting prior to symptom onset (P21). Mice of both genotypes were also treated with the base cream containing no drug for control. Mice were tested for responses to a noxious thermal stimulus prior to the initiation of treatment and every 7 days for the duration of the experiment.
Transgenic mouse lines used were as previously described (Lacomis et al., Muscle Nerve 26, 173-188 (2002); Comblath et al., Current opinion in Neurology 19, 446-450 (2006)). Animals were kept in the animal facility with free access to food and water. Behavioral experiments were performed in a quiet environment at the same time of day. The hot plate test was performed using a “controlled hot-plate analgesia meter” (Columbus Instruments) heated to 54° C. Paw withdrawal latency was measured as the time required for the mouse to visibly respond to the thermal stimulus, e.g. licking paws, shaking paws, or jumping off of the plate. […]

The target of a further data set is T1, GFRα2/RET (Homo sapiens, UniProt O00451+P07949).
T1 construct: B(E)2-C cells, which express only GFRα2 together with RET; endogenous in cells; host or cells: B(E)2-C / BE(2)-C cells
Briefly: NRTN/GFRα2-induced RET phosphorylation in B(E)2-C cells. As to conditions: 2 nM NRTN with 20 μM XIB4035, 10 minutes, then 60 minutes growth medium. It is filed as cell-based. As for the experimental part: B(E)2-C cells, which express GFRα2, were treated under different conditions (no treatment, 2 nM NRTN, or 2 nM NRTN with 20 μM XIB4035) for 10 minutes. Cells were either lysed immediately or after incubation in growth medium for an additional 60 minutes.
Since the original report argued that XIB4035 displaces GDNF binding to GFRα1 expressing cells (FIG. 2 in Tokugawa et al., Neurochem Int 42, 81-86 (2003).), potentially ARTN, on TH-luciferase activity and Ret phosphorylation. […] In this experiment, cells were treated with GDNF or ARTN with or without XIB4035 for 10 minutes and cell lysates were either collected immediately or treatment was washed out and replaced with growth media for 30, 60, or 120 minutes. […] Therefore, we tested cells expressing only one GFRα using either N2A cells (which express RET) transfected with GFRα1 or GFRα3 expression constructs, or B(E)2-C cells, which express only GFRα2 together with RET. […] The GFRα1 or GFRα3 transfected N2A cells were then treated with XIB4035 alone, the appropriate ligand for the expressed receptor alone, or XIB4035 and ligand in combination for 10 minutes, and collected lysates immediately after treatment or 60 minutes after washout. […] Similar results were obtained with GFRα2 and NRTN using B(E)2-C cells (FIG. 8). […]

T1 sequence (O00451 22-444 limits assumed): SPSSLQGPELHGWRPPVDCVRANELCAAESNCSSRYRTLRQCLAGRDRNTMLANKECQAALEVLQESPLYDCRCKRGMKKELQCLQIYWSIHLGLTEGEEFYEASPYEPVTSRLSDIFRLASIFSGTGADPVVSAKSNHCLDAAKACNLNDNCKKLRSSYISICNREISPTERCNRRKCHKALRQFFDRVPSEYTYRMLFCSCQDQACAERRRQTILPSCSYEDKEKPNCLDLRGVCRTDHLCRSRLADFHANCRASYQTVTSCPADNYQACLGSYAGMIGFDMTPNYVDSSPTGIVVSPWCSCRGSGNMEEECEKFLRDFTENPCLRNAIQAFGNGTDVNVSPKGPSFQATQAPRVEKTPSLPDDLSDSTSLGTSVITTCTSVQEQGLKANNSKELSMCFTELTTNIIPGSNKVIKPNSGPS
T1 sequence (P07949 29-1114): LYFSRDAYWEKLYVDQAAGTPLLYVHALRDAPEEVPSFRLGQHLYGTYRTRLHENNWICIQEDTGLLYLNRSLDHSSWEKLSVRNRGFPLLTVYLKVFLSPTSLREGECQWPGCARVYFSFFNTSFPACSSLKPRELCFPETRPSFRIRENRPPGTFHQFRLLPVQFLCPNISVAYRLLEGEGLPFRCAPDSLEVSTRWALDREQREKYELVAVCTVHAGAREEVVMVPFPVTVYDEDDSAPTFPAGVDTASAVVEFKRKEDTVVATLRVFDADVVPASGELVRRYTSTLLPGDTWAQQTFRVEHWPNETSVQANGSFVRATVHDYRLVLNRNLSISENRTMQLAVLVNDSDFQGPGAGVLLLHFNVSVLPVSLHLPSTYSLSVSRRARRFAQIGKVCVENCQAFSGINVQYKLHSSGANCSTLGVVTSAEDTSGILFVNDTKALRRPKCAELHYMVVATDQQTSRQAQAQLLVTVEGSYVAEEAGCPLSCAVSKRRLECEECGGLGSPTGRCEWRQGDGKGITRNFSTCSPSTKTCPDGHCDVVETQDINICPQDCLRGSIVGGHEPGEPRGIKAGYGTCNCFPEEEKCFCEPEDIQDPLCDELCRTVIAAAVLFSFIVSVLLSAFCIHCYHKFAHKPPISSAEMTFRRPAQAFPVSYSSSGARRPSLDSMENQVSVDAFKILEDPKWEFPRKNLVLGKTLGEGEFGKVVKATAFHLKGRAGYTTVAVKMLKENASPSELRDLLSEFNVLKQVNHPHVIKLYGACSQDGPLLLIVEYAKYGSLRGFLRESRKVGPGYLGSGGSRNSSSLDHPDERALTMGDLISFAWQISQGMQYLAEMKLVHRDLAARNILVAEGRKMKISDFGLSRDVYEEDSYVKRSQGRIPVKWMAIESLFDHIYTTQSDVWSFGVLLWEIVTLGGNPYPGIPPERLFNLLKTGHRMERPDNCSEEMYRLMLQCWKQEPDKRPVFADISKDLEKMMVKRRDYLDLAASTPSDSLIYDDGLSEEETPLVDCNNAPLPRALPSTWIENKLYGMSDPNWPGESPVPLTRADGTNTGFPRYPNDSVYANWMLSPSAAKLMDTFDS

Consider `CCN(CC)CCCC(C)Nc1cc(/C=C/c2ccccc2Cl)nc2cc(Cl)ccc12` (centres unmarked) [XIB4035, N4-{7-chloro-2-[(E)-2-(2-chloro-phenyl)-vinyl]-quinolin-4-yl}-N1,N1-diethyl-pentane-1,4-diamine], for which, in the data set with wild type mice, the thermal hyperalgesia result is recorded as “did not induce thermal hyperalgesia”. In addition, at GFRα2/RET, the “RET phosphorylation at 60 min” value is given as “detected”.

These data come from patent US20160045487A1, “COMPOSITIONS AND METHODS FOR TREATING NEUROPATHY” (CHILDEREN'S MEDICAL CENTER CORPORATION, priority 2013, published 2016).
